Test results taken from patent US11639353B2, “Cyclobutanes- and azetidine-containing mono and spirocyclic compounds as αV integrin inhibitors” (BRISTOL-MYERS SQUIBB COMPANY, priority 2016, dated 2023).
pIC50: −log10 of the molar value.

Experiments:
Conditions in all cases: alternatively SPA-based assay
human αVβ3 = human αVβ3 (Homo sapiens, UniProt P05106+P06756); experiment: human αVβ3 HTRF binding assay
Method: (§1) All binding assays used the HTRF (homogeneous time resolved fluorescence) technology from Cisbio International, therefore all assays are described as HTRF binding assays. The assay results for the Examples are listed above together with the characterization data. The HTRF binding assays are established for the following integrins: human αVβ6, human αVβ1, human αVβ3, human αVβ5, and human αVβ8. All assays used the following assay buffer: 20 mM Tris, pH 7.4, 1 mM MgCl2, 1 mM MnCl2, 0.01% Tween 20, and 0.01% BSA. Alternatively, a SPA-based assay was used for evaluation of receptor binding.
(§2) The SPA-based assay was carried out according to the protocol and procedures similar to the ones described in the following reference with appropriate modifications to agents and ligands which are readily understood by one skilled in the art: Pachter J A, Zhang R, Mayer-Ezell R., “Scintillation proximity assay to measure binding of soluble fibronectin to antibody-captured αVβ1 integrin” Anal Biochem. 1995 Sep. 1; 230(1):101-7.

human αVβ6 = molecular target: T1, human αVβ6 (Homo sapiens, UniProt P06756+P18564); experiment: human αVβ6 HTRF binding assay
T1 construct: purchased R & D systems 3817-AV
How it was run: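 Biotinylated recombinant human αVβ6 (1.25 nM final) incubated with FITC-fibronectin (5 nM final) 1 h at RT, then streptavidin-terbium (0.625 nM final) added and left overnight at RT in the dark before HTRF reading. Buffer: 20 mM Tris pH 7.4, 1 mM MgCl2, 1 mM MnCl2, 0.01% Tween 20, 0.01% BSA.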

human αVβ5 = human αVβ5 (Homo sapiens, UniProt P06756+P18084); experiment: human αVβ5 HTRF binding assay
Method: as §1, §2

human αVβ1 = human αVβ1 (Homo sapiens, UniProt P05556+P06756); experiment: human αVβ1 HTRF binding assay
Method: as §1, §2

human αVβ8 = human αVβ8 (Homo sapiens, UniProt P06756+P26012); experiment: human αVβ8 HTRF binding assay
Method: as §1, §2

Chain of human αVβ1 (P06756 31-992 limits assumed): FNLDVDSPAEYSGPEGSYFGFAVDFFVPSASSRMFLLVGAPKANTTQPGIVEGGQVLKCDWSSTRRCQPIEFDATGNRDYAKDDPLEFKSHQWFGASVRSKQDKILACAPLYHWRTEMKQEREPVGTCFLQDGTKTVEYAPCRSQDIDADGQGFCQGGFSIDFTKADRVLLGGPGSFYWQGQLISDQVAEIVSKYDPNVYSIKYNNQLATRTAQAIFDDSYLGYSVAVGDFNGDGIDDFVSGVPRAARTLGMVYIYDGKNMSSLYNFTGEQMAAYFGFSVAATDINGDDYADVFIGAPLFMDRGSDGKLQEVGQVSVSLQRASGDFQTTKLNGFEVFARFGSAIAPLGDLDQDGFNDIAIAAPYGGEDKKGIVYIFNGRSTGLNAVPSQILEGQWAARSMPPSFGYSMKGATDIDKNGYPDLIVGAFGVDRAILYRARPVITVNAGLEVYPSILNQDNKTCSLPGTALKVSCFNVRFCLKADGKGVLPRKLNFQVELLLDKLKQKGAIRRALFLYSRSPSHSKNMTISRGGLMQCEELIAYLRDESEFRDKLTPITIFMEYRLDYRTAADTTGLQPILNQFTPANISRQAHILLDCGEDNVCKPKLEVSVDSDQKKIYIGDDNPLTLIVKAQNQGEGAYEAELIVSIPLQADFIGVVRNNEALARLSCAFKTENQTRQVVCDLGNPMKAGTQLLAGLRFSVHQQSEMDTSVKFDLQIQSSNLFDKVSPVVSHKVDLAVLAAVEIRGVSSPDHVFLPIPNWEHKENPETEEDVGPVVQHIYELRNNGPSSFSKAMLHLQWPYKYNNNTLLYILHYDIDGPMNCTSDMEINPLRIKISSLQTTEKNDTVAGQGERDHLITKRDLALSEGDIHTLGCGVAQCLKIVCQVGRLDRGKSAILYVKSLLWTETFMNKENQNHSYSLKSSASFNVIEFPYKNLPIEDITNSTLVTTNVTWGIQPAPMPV
Chain of human αVβ1 (P05556 21-728 limits assumed): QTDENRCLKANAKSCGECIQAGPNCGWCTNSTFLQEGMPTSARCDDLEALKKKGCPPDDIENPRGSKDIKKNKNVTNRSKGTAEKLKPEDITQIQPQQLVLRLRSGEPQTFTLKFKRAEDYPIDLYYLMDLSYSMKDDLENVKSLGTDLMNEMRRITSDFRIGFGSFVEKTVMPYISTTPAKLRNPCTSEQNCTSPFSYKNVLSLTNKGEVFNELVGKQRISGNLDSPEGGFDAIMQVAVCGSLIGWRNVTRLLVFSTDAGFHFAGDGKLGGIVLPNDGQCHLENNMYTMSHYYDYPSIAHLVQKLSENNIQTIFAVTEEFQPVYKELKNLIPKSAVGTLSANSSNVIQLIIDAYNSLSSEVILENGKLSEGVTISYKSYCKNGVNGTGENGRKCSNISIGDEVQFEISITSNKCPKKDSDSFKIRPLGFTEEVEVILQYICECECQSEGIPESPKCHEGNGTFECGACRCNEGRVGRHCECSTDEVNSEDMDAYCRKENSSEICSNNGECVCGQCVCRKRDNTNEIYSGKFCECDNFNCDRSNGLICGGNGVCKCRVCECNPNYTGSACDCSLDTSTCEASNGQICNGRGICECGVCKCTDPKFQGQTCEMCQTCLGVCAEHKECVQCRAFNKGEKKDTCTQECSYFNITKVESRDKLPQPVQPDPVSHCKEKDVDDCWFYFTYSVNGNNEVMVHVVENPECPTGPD
Chain of human αVβ5 (P06756 31-992 limits assumed): as the sequence (P06756 31-992 limits assumed) above
Chain of human αVβ5 (P18084 24-719 limits assumed): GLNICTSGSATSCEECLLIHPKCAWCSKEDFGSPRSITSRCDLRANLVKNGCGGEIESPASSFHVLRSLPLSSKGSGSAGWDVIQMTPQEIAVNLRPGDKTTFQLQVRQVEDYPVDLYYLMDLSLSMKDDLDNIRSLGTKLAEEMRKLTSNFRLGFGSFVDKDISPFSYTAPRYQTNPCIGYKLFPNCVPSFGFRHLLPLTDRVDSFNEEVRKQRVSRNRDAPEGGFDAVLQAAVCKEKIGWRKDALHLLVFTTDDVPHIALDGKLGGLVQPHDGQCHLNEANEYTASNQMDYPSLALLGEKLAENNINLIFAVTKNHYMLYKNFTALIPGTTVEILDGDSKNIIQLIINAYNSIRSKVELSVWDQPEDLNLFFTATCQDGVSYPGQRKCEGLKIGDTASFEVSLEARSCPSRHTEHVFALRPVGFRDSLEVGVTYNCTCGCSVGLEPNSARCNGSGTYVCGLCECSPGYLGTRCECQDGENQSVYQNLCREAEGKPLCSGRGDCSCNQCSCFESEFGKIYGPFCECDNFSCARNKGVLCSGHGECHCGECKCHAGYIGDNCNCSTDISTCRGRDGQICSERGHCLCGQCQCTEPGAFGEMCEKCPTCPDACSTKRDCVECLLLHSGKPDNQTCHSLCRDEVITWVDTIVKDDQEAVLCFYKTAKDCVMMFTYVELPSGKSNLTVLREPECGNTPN
Chain of human αVβ8 (P06756 31-992 limits assumed): as the sequence (P06756 31-992 limits assumed) above
Chain of human αVβ8 (P26012 43-684 limits assumed): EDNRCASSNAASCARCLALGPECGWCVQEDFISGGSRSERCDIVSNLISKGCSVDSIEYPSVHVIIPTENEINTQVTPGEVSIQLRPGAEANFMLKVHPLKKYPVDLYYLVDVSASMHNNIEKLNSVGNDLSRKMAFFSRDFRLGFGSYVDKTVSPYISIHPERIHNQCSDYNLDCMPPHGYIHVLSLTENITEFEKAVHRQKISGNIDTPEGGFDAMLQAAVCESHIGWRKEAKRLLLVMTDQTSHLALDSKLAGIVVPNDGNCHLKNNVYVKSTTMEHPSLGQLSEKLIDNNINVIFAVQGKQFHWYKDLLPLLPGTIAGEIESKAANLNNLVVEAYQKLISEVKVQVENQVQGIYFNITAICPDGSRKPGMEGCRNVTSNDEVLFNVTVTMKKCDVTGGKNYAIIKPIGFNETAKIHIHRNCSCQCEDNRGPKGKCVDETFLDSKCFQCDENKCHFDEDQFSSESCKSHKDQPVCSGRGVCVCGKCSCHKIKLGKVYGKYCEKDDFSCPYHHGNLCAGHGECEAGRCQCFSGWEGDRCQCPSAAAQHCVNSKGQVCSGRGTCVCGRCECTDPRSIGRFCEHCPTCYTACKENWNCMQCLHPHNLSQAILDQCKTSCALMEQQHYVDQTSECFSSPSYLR
Chain of human αVβ3 (P06756 31-992 limits assumed): as the sequence (P06756 31-992 limits assumed) above
Chain of human αVβ3 (P05106 27-718 limits assumed): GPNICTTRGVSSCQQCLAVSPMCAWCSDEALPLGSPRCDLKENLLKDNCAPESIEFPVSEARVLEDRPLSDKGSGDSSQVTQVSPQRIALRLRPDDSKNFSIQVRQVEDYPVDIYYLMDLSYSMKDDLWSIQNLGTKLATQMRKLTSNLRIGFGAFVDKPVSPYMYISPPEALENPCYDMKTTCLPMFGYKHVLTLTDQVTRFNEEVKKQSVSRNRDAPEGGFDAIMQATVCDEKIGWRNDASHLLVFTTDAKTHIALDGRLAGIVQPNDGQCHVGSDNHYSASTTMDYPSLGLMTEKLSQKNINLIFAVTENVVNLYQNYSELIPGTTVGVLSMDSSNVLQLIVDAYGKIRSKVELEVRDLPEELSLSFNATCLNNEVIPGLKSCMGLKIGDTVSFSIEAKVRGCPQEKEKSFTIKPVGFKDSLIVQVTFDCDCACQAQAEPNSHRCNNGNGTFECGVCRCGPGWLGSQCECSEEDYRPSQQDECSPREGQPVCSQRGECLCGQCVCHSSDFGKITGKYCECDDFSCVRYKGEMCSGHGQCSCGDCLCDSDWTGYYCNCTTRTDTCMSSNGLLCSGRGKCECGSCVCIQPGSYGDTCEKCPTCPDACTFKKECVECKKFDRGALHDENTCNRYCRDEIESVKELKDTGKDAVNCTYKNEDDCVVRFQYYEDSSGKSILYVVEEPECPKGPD
T1 sequence (P06756 31-992 limits assumed): as the sequence (P06756 31-992 limits assumed) above
T1 sequence (P18564 22-707 limits assumed): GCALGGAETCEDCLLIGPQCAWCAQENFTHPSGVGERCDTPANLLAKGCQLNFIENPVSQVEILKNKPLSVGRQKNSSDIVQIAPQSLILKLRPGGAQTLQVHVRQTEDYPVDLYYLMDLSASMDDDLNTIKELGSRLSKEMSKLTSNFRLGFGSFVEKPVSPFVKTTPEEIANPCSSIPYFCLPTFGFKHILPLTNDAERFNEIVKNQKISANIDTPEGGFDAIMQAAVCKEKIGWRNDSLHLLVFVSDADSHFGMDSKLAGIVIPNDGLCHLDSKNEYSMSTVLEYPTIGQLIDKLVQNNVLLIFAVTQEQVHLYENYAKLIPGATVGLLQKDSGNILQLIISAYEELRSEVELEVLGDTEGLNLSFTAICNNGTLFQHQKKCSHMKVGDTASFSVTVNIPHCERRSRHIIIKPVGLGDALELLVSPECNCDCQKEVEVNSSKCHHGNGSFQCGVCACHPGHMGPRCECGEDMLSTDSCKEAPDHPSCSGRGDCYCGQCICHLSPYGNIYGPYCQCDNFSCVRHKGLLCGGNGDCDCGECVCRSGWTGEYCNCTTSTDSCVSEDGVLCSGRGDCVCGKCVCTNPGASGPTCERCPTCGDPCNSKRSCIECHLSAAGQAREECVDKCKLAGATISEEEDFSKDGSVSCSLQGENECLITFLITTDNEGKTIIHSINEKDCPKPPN

Molecule | pIC50 (human αVβ3) | pIC50 (human αVβ6) | pIC50 (human αVβ5) | pIC50 (human αVβ1) | pIC50 (human αVβ8)
COc1ccc([C@H](CC(=O)O)NC(=O)N2CC(CCc3ccc4c(n3)NCCC4)C2)cn1 [Example 6, (S)-3-(6-Methoxypyridin-3-yl)-3-(3-(2-(5,6,7,8-tetrahydro-1,8-naphthyridin-2-yl)ethyl)azetidine-1-carboxamido)propanoic acid] | 8.20 | 8.55 | 8.11 | 6.29 | 6.37
COc1ccc([C@H](CC(=O)O)N2CC(CCCCc3ccc4c(n3)NCCC4)C2=O)cn1 (stereo partly drawn) [Example 9, (3S)-3-(6-Methoxypyridin-3-yl)-3-(2-oxo-3-(4-(5,6,7,8-tetrahydro-1,8-naphthyridin-2-yl)butyl)azetidin-1-yl)propanoic acid] | 8.74 | 8.72 | 8.92 | 6.40 | 6.20
Cc1cc(C)c(S(=O)(=O)N[C@@H](CNC(=O)C2(F)CN(CCc3ccc4c(n3)NCCC4)C2)C(=O)O)c(C)c1 [Example 13, (S)-3-(3-Fluoro-1-(2-(5,6,7,8-tetrahydro-1,8-naphthyridin-2-yl)ethyl)azetidine-3-carboxamido)-2-(2,4,6-trimethylphenylsulfonamido)propanoic acid] | 8.39 | 9.22 | 8.70 | 7.08 | 7.52
Cc1ncc([C@H](CC(=O)O)N2CC(CCCCc3ccc4c(n3)NCCC4)C2)cn1 [Example 26, (S)-3-(2-Methylpyrimidin-5-yl)-3-(3-(4-(5,6,7,8-tetrahydro-1,8-naphthyridin-2-yl)butyl)azetidin-1-yl)propanoic acid] | 8.75 | 8.95 | 8.70 | 5.06 | 
COc1ccc([C@H](CC(=O)O)N2CC(CCCCc3ccc4c(n3)NCCC4)C2)cc1F [Example 27, (S)-3-(3-Fluoro-4-methoxyphenyl)-3-(3-(4-(5,6,7,8-tetrahydro-1,8-naphthyridin-2-yl)butyl)azetidin-1-yl)propanoic acid] |  | 9.24 |  |  | 7.96
Cc1cc(C)c(S(=O)(=O)N[C@@H](CNC(=O)C2CN(CCc3ccc4c(n3)NCCC4)C2)C(=O)O)c(C)c1 [Example 36] | 8.42 | 9.12 | 8.70 |  | 8.03
O=C(N[C@@H](CNC(=O)C1(F)CN(CCc2ccc3c(n2)NCCC3)C1)C(=O)O)OCc1ccccc1 [Example 45] | 8.51 | 9.30 | 9.52 | 7.55 | 7.05
Cc1cc(C)c(S(=O)(=O)N[C@@H](CNC(=O)[C@H]2C[C@@H](CCc3ccc4c(n3)NCCC4)C2)C(=O)O)c(C)c1 [Example 51] | 8.68 | 9.48 | 9.36 |  | 7.82
Cc1cc(C)c(S(=O)(=O)N[C@@H](CNC(=O)[C@H]2C[C@H](CCc3ccc4c(n3)NCCC4)C2)C(=O)O)c(C)c1 [Example 52] | 8.68 | 9.43 | 9.70 | 8.51 | 7.82
COc1ccc([C@H](CC(=O)O)NC(=O)[C@H]2C[C@H](CCc3ccc4c(n3)NCCC4)C2)cc1F [Example 53] | 8.62 | 9.28 | 8.74 | 7.42 | 6.89
COc1ccc([C@H](CC(=O)O)NC(=O)C2CC(CCc3ccc4c(n3)NCCC4)C2)cn1 (stereo partly drawn) [Example 56] | 8.70 | 9.24 | 9.24 | 7.17 | 7.26
O=C(N[C@@H](CNC(=O)C1CC(CCc2ccc3c(n2)NCCC3)C1)C(=O)O)OCc1ccccc1 (stereo partly drawn) [Example 58] | 8.62 | 9.36 | 9.82 | 8.12 | 7.21
COc1ccc([C@H](CC(=O)O)NC(=O)[C@H]2C[C@H](CCc3ccc4c(n3)NCCC4)C2)cn1 [Example 59] | 8.57 | 9.19 | 9.33 | 7.06 | 6.57
COc1ccc([C@H](CC(=O)O)NC(=O)N2CC(CCc3ccc4c(n3)NCCC4)C2)cc1F [Example 63] | 8.55 | 8.65 | 8.03 | 6.73 | 6.39
COc1ncc([C@H](CC(=O)O)N2CC(CCCCc3ccc4c(n3)NCCC4)C2=O)cn1 (stereo partly drawn) [Example 69] | 8.75 | 8.49 | 9.49 | 5.91 | 5.70
O=C(N[C@@H](CNC(=O)[C@H]1C[C@@H](CCc2ccc3c(n2)NCCC3)C1)C(=O)O)OCc1ccccc1 [Example 77] | 8.70 | 9.27 | 11.00 | 7.32 | 7.09
O=C(N[C@@H](CNC(=O)[C@H]1C[C@H](CCc2ccc3c(n2)NCCC3)C1)C(=O)O)OCc1ccccc1 [Example 78] | 8.38 | 9.01 | 9.38 | 7.43 | 7.42

Molecule | pIC50 (human αVβ3) | pIC50 (human αVβ6) | pIC50 (human αVβ5) | pIC50 (human αVβ1) | pIC50 (human αVβ8)
O=C(O)C[C@H](NC(=O)C1(F)CN(CCc2ccc3c(n2)NCCC3)C1)c1cnc2ccccc2c1 [Example 80] | 8.64 | 9.21 | 8.68 | 6.05 | 7.31
COc1ncc([C@H](CC(=O)O)NC(=O)[C@H]2C[C@H](CCc3ccc4c(n3)NCCC4)C2)cn1 [Example 82] | 8.38 | 9.11 | 7.82 | 6.70 | 6.33
COc1ncc([C@H](CC(=O)O)NC(=O)[C@H]2C[C@@H](CCc3ccc4c(n3)NCCC4)C2)cn1 [Example 83] | 8.49 | 8.70 | 6.82 | 5.40 | 5.85
O=C(O)C[C@H](NC(=O)[C@H]1C[C@H](CCc2ccc3c(n2)NCCC3)C1)c1cnc2ccccc2c1 [Example 84] | 8.33 | 9.21 | 7.39 | 7.22 | 7.08
O=C(O)C[C@H](NC(=O)[C@H]1C[C@@H](CCc2ccc3c(n2)NCCC3)C1)c1cnc2ccccc2c1 [Example 85] | 8.68 | 9.17 |  | 6.48 | 6.85
Cc1ncc([C@H](CC(=O)O)NC(=O)[C@H]2C[C@H](CCc3ccc4c(n3)NCCC4)C2)cn1 [Example 86] | 8.57 | 8.82 |  |  | 6.10
Cc1ncc([C@H](CC(=O)O)NC(=O)[C@H]2C[C@@H](CCc3ccc4c(n3)NCCC4)C2)cn1 [Example 87] | 8.42 | 8.96 | 8.06 | 5.66 | 6.03
O=C(O)C[C@H](NC(=O)[C@H]1C[C@H](CCc2ccc3c(n2)NCCC3)C1)c1ccc2c(c1)OCC2 [Example 88] | 8.57 | 9.06 | 9.00 | 6.82 | 6.72
O=C(O)C[C@H](NC(=O)[C@H]1C[C@@H](CCc2ccc3c(n2)NCCC3)C1)c1ccc2c(c1)OCC2 [Example 89] | 8.82 | 8.66 |  |  | 6.60
O=C(O)C[C@H](NC(=O)[C@H]1C[C@H](CCc2ccc3c(n2)NCCC3)C1)c1cncnc1 [Example 90] | 6.92 | 8.77 |  | 6.28 | 5.96
O=C(O)C[C@H](NC(=O)N1CC(CCc2ccc3c(n2)NCCC3)C1)c1cnc2ccccc2c1 [Example 96] | 8.64 | 8.72 | 8.89 | 6.61 | 6.92
O=C(O)C[C@H](NC(=O)N1CC(CCc2ccc3c(n2)NCCC3)C1)c1ccc2c(c1)OCC2 [Example 97] | 8.36 | 9.19 | 9.00 | 6.15 | 6.55
O=C(O)C[C@@H](c1ccc2c(c1)OCC2)N1CC(CCCCc2ccc3c(n2)NCCC3)C1=O (stereo partly drawn) [Example 104] | 8.62 | 8.65 |  | 6.48 | 6.96
Cc1ncc([C@H](CC(=O)O)N2CC(OCCCc3ccc4c(n3)NCCC4)C2)cn1 [example 131, (S)-3-(2-methylpyrimidin-5-yl)-3-(3-(3-(5,6,7,8-tetrahydro-1,8-naphthyridin-2-yl)propoxy)azetidin-1-yl)propanoic acid] |  | 8.12 |  |  | 
Cc1ncc([C@@H](CC(=O)O)N2CC(OCCCc3ccc4c(n3)NCCC4)C2)cn1 [example 132, (R)-3-(2-methylpyrimidin-5-yl)-3-(3-(3-(5,6,7,8-tetrahydro-1,8-naphthyridin-2-yl)propoxy)azetidin-1-yl)propanoic acid] |  | 7.60 |  |  | 
(S)-Ethyl 3-(6-methoxypyridin-3-yl)-3-(1-methyl-3-(2-(5,6,7,8-tetrahydro-1,8-naphthyridin-2-yl)ethyl)cyclobutanecarboxamido)propanoate [Example 15] |  | 8.28 |  |  | 
(S)-Ethyl 3-(6-methoxypyridin-3-yl)-3-(1-methyl-3-(2-(5,6,7,8-tetrahydro-1,8-naphthyridin-2-yl)ethyl)cyclobutanecarboxamido)propanoate [Example 16] |  | 8.59 |  |  | 
